According to the RepoRT retention time repository (doi:10.1016/j.foodchem.2012.08.062):

Test: RP, Waters ACQUITY UPLC BEH Shield RP18, 150 × 3 mm, 1.7 µm, 40 °C, 0.5 mL/min, estimated dead time 1.4 min; A: water + 0.1% formic acid; B: acetonitrile + 0.1% formic acid; gradient (min/%B) 0/0 9.91/26 18.51/65 18.76/100 20.76/100
Settings: stereoisomer not certain

LC retention time [min]	SMILES
12.7	COc1cc(C=CC(=O)O)cc(OC)c1O
16.7	O=c1c(O)c(-c2ccc(O)c(O)c2)oc2cc(O)cc(O)c12
14.8	O=C1c2c(O)cc(O)cc2OC(c2ccc(O)cc2)C1O (stereo not given)
12.6	CC1OC(OCC2OC(Oc3c(-c4ccc(O)c(O)c4)oc4cc(O)cc(O)c4c3=O)C(O)C(O)C2O)C(O)C(O)C1O (stereo not given)
10.2	Oc1cc(O)c2c(c1)OC(c1ccc(O)c(O)c1)C(O)C2c1c(O)cc(O)c2c1OC(c1ccc(O)c(O)c1)C(O)C2 (stereo not given)
18	O=c1cc(-c2ccc(O)cc2)oc2cc(O)cc(O)c12
12.7	O=c1cc(-c2ccc(O)c(O)c2)oc2cc(OC3OC(CO)C(O)C(O)C3O)cc(O)c12 (stereo not given)
8.65	O=C(O)CCc1ccc(O)c(O)c1
13.7	O=c1c(OC2OC(CO)C(O)C2O)c(-c2ccc(O)c(O)c2)oc2cc(O)cc(O)c12 (stereo not given)
7.05	O=C(O)c1ccc(O)c(O)c1
8.3	O=C(C=Cc1ccc(O)c(O)c1)OC1CC(O)(C(=O)O)CC(O)C1O (stereo not given)
8.61	O=C(O)Cc1ccc(O)cc1
13.3	O=C1c2c(O)cc(O)cc2OC(c2ccc(O)c(O)c2)C1O (stereo not given)
16.6	O=c1cc(-c2ccc(O)c(O)c2)oc2cc(O)cc(O)c12
13.7	O=c1cc(-c2ccc(O)cc2)oc2cc(OC3OC(CO)C(O)C(O)C3O)cc(O)c12 (stereo not given)
4.79	O=C(O)c1cc(O)c(O)c(O)c1
14.5	O=C(O)c1ccccc1O
12.7	O=C(O)C=Cc1ccc(O)cc1
13	CC1OC(OC2C(Oc3cc(O)c4c(c3)OC(c3ccc(O)cc3)CC4=O)OC(CO)C(O)C2O)C(O)C(O)C1O (stereo not given)
17	O=C(CCc1ccc(O)cc1)c1c(O)cc(O)cc1O
14	CC1OC(Oc2c(-c3ccc(O)c(O)c3)oc3cc(O)cc(O)c3c2=O)C(O)C(O)C1O (stereo not given)
17.1	O=C1CC(c2ccc(O)cc2)Oc2cc(O)cc(O)c21 (stereo not given)
13.8	CCCOC(=O)c1cc(O)c(O)c(O)c1
13.7	O=C(CCc1ccc(O)cc1)c1c(O)cc(O)cc1OC1OC(CO)C(O)C(O)C1O (stereo not given)
18.4	O=c1c(O)c(-c2ccc(O)cc2)oc2cc(O)cc(O)c12
13.8	O=c1c(OC2OC(CO)C(O)C(O)C2O)c(-c2ccc(O)cc2)oc2cc(O)cc(O)c12 (stereo not given)
12.8	COc1cc(C=CC(=O)O)ccc1O
18.1	COc1cc(-c2oc3cc(O)cc(O)c3c(=O)c2O)ccc1O
11.3	COc1cc(CCC(=O)O)ccc1O
20.3	O=c1c(O)c(-c2ccccc2)oc2cc(O)cc(O)c12
